According to ChEMBL document CHEMBL4396901, “Discovery of Potent and Noncovalent Reversible EGFR Kinase Inhibitors of EGFRL858R/T790M/C797S” (ACS Med Chem Lett, 2019):
Activity calls are given as the source filed them. The rule behind the calls is not given here.

Columns and labels:
[1] = tested on: Epidermal growth factor receptor (Homo sapiens), P00533 [L858R,T790M,C797S]; experiment: (§1) Inhibition of recombinant human C-terminal His-tagged/N-terminal GST-tagged EGFR (668 to 1210 residues) T790M/L858R/C797S mutant expressed in baculovirus expression system using poly (Glu,Tyr) 4:1 as substrate incubated for 1 hr in presence of ATP by ELISA
[2] = target: Epidermal growth factor receptor (Homo sapiens, UniProt P00533, C797S/L858R/T790M); experiment: as §1
[3] = tested on: Epidermal growth factor receptor (Homo sapiens), P00533 [L858R,T790M,C797S]; experiment: Inhibition of recombinant human C-terminal His-tagged/N-terminal GST-tagged EGFR (668 to 1210 residues) T790M/L858R/C797S mutant expressed in baculovirus expression system at 100 nM using poly (Glu,Tyr) 4:1 as substrate incubated for 1 hr in presence of ATP by ELISA relative to control
[4] = target: Receptor tyrosine-protein kinase erbB-2 (Homo sapiens) (UniProt P04626); experiment: Inhibition of ErbB2 (unknown origin) at 100 nM relative to control
[5] = target: Receptor tyrosine-protein kinase erbB-4 (Homo sapiens) (UniProt Q15303); experiment: Inhibition of ErbB4 (unknown origin) at 100 nM relative to control
[6] = target: Tyrosine-protein kinase Blk (Homo sapiens) (UniProt P51451); experiment: Inhibition of BLK (unknown origin) at 100 nM relative to control
[7] = target: Proto-oncogene tyrosine-protein kinase Src (Homo sapiens) (UniProt P12931); experiment: Inhibition of Src (unknown origin) at 100 nM relative to control
[8] = target: Tyrosine-protein kinase ABL1 (Homo sapiens) (UniProt P00519); experiment: Inhibition of Abl (unknown origin) at 100 nM relative to control
[9] = target: Platelet-derived growth factor receptor alpha (Homo sapiens) (UniProt P16234); experiment: Inhibition of PDGFRalpha (unknown origin) at 100 nM relative to control
[10] = target: Tyrosine-protein kinase TXK (Homo sapiens) (UniProt P42681); experiment: Inhibition of Txk (unknown origin) at 100 nM relative to control
[11] = target: Tyrosine-protein kinase receptor UFO (Homo sapiens) (UniProt P30530); experiment: Inhibition of AXL (unknown origin) at 100 nM relative to control
[12] = target: Tyrosine-protein kinase BTK (Homo sapiens) (UniProt Q06187); experiment: Inhibition of BTK (unknown origin) at 100 nM relative to control
[13] = target: Vascular endothelial growth factor receptor 2 (Homo sapiens) (UniProt P35968); experiment: Inhibition of VEGFR2 (unknown origin) at 100 nM relative to control
[14] = target: Vascular endothelial growth factor receptor 1 (Homo sapiens) (UniProt P17948); experiment: Inhibition of VEGFR1 (unknown origin) at 100 nM relative to control
[15] = target: Vascular endothelial growth factor receptor 3 (Homo sapiens) (UniProt P35916); experiment: Inhibition of VEGFR3 (unknown origin) at 100 nM relative to control
[16] = target: Ephrin type-A receptor 2 (Homo sapiens) (UniProt P29317); experiment: Inhibition of EPHA2 (unknown origin) at 100 nM relative to control
[17] = target: Ephrin type-B receptor 2 (Homo sapiens) (UniProt P29323); experiment: Inhibition of EPHB2 (unknown origin) at 100 nM relative to control
[18] = target: Insulin-like growth factor 1 receptor (Homo sapiens) (UniProt P08069); experiment: Inhibition of IGF1R (unknown origin) at 100 nM relative to control
[19] = target: Fibroblast growth factor receptor 1 (Homo sapiens) (UniProt P11362); experiment: Inhibition of FGFR1 (unknown origin) at 100 nM relative to control
[20] = target: Fibroblast growth factor receptor 2 (Homo sapiens) (UniProt P21802); experiment: Inhibition of FGFR2 (unknown origin) at 100 nM relative to control
[21] = target: Fibroblast growth factor receptor 3 (Homo sapiens) (UniProt P22607); experiment: Inhibition of FGFR3 (unknown origin) at 100 nM relative to control
[22] = target: Fibroblast growth factor receptor 4 (Homo sapiens) (UniProt P22455); experiment: Inhibition of FGFR4 (unknown origin) at 100 nM relative to control
[23] = target: Tyrosine-protein kinase JAK1 (Homo sapiens) (UniProt P23458); experiment: Inhibition of JAK1 (unknown origin) at 100 nM relative to control
[24] = target: Tyrosine-protein kinase JAK3 (Homo sapiens) (UniProt P52333); experiment: Inhibition of JAK3 (unknown origin) at 100 nM relative to control
[25] = target: High affinity nerve growth factor receptor (Homo sapiens) (UniProt P04629); experiment: Inhibition of TrkA (unknown origin) at 100 nM relative to control
[26] = target: BDNF/NT-3 growth factors receptor (Homo sapiens) (UniProt Q16620); experiment: Inhibition of TrkB (unknown origin) at 100 nM relative to control
[27] = target: NT-3 growth factor receptor (Homo sapiens) (UniProt Q16288); experiment: Inhibition of TrkC (unknown origin) at 100 nM relative to control
[28] = target: ALK tyrosine kinase receptor (Homo sapiens) (UniProt Q9UM73); experiment: Inhibition of ALK (unknown origin) at 100 nM relative to control
[29] = target: Inhibitor of NF-kappa-B kinase (IKK) (Homo sapiens) (UniProt O14920+O15111+Q9Y6K9); experiment: Inhibition of IKK (unknown origin) at 100 nM relative to control; assay type: protein-complex assay
[30] = target: Proto-oncogene tyrosine-protein kinase receptor Ret (Homo sapiens) (UniProt P07949); experiment: Inhibition of RET (unknown origin) at 100 nM relative to control
[31] = target: Mast/stem cell growth factor receptor Kit (Homo sapiens) (UniProt P10721); experiment: Inhibition of cKIT (unknown origin) at 100 nM relative to control
[32] = target: Receptor-type tyrosine-protein kinase FLT3 (Homo sapiens) (UniProt P36888); experiment: Inhibition of FLT3 (unknown origin) at 100 nM relative to control
[33] = target: Hepatocyte growth factor receptor (Homo sapiens) (UniProt P08581); experiment: Inhibition of MET (unknown origin) at 100 nM relative to control
[34] = target: Insulin receptor (Homo sapiens) (UniProt P06213); experiment: Inhibition of IR (unknown origin) at 100 nM relative to control
[35] = target: Cytoplasmic tyrosine-protein kinase BMX (Homo sapiens) (UniProt P51813); experiment: Inhibition of BMX (unknown origin) at 100 nM relative to control
[36] = target: Tyrosine-protein kinase Yes (Homo sapiens) (UniProt P07947); experiment: Inhibition of YES (unknown origin) at 100 nM relative to control
[37] = target: Macrophage colony-stimulating factor 1 receptor (Homo sapiens) (UniProt P07333); experiment: Inhibition of CSF1R (unknown origin) at 100 nM relative to control
[38] = target: Focal adhesion kinase 1 (Homo sapiens) (UniProt Q05397); experiment: Inhibition of FAK (unknown origin) at 100 nM relative to control
[39] = tested on: BaF3; experiment: Cytotoxicity against mouse BAF3 cells incubated for 72 hrs by resazurin dye based assay; assay type: cell-based; conditions: BaF3, 72 h
[40] = tested on: BaF3; experiment: Antiproliferative activity against mouse BAF3 cells transfected with EGFR L858R/T790M/C797S mutant (unknown origin) incubated for 72 hrs by resazurin dye based assay; assay type: functional, cell-based; conditions: BaF3, 72 h
[41] = tested on: NCI-H1975; experiment: Antiproliferative activity human NCI-H1975 cells incubated for 72 hrs by SRB assay; assay type: functional, cell-based; conditions: NCI-H1975, 72 h
[42] = tested on: A-431; experiment: Antiproliferative activity human A431 cells incubated for 72 hrs by SRB assay; assay type: functional, cell-based; conditions: A-431, 72 h
[43] = tested on: Epidermal growth factor receptor (Homo sapiens), P00533 [L858R,T790M,C797S]; experiment: Inhibition of EGFR L858R/T790M/C797S mutant (unknown origin) transfected in mouse BAF3 cells assessed as inhibition of EGF-induced EGFR phosphorylation by Western blot analysis; assay type: cell-based
[44] = target: Epidermal growth factor receptor (Homo sapiens, UniProt P00533, C797S/EX19DEL/T790M); experiment: Inhibition of EGFR 19D/T790M/C797S mutant (unknown origin) using poly (Glu,Tyr) 4:1 as substrate incubated for 1 hr in presence of ATP by ELISA
[45] = tested on: BaF3; experiment: Antiproliferative activity against mouse BAF3 cells transfected with EGFR 19D/T790M/C797S mutant (unknown origin) incubated for 72 hrs by resazurin dye based assay; assay type: functional, cell-based; conditions: BaF3, 72 h
[46] = Aqueous solubility of the compound in PBS buffer at pH 6.8 by UV-Vis spectrophotometric method; assay type: physicochemical
[47] = Clearance in rat at 1 mg/kg, iv measured for 0.083 to 24 hrs by LC-MS/MS analysis; assay type: ADME, organism-based; conditions: in vivo
[48] = Oral bioavailability in rat at 10 mg/kg measured for 0.083 to 24 hrs by LC-MS/MS analysis; assay type: ADME, organism-based; conditions: in vivo
[49] = tested on: Epidermal growth factor receptor (Homo sapiens), P00533 [L858R,T790M,C797S]; experiment: Inhibition of EGFR L858R/T790M/C797S mutant (unknown origin) transfected in mouse BAF3 cells assessed as inhibition of EGF-induced EGFR phosphorylation at 0.1 uM by Western blot analysis; assay type: cell-based
[50] = target: Platelet-derived growth factor receptor beta (Homo sapiens) (UniProt P09619); experiment: Inhibition of PDGFRbeta (unknown origin) at 100 nM relative to control
[51] = tested on: Epidermal growth factor receptor (Homo sapiens), P00533 [L858R,T790M]; experiment: Inhibition of human EGFR T790M/L858R mutant using poly (Glu,Tyr) 4:1 as substrate incubated for 1 hr in presence of ATP by ELISA

Epidermal growth factor receptor (Homo sapiens, UniProt P00533, C797S/L858R/T790M), sequence (P00533 whole entry T790M/C797S/L858R, the tested form may be a part): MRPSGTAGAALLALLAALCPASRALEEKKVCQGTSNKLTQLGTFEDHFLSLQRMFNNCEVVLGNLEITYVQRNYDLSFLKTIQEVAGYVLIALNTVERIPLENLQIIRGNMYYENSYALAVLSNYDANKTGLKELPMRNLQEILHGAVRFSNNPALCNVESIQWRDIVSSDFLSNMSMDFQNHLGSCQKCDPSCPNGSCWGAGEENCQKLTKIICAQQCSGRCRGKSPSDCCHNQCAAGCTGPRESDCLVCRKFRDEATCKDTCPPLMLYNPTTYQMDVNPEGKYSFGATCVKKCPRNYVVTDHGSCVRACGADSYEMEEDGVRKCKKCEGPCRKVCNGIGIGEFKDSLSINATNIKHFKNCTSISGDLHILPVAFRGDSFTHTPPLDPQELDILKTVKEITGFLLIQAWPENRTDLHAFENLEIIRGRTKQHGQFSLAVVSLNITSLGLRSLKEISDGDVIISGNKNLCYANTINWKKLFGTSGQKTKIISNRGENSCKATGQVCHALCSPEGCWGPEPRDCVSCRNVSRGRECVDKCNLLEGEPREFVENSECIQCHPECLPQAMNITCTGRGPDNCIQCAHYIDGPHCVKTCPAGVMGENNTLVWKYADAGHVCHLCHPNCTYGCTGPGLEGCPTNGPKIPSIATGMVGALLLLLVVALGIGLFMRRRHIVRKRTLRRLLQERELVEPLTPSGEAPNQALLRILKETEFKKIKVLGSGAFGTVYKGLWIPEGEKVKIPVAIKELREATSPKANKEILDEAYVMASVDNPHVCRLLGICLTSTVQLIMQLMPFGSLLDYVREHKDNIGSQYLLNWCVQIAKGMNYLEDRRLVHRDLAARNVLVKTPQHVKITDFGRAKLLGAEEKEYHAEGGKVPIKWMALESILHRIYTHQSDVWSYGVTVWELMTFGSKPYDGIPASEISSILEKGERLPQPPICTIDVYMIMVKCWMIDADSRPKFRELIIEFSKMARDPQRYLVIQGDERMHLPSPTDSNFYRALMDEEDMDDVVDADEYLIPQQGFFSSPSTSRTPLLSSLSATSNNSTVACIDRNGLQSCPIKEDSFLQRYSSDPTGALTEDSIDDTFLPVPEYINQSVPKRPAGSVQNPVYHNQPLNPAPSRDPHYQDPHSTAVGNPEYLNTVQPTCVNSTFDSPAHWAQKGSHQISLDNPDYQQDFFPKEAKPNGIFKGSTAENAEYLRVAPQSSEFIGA
Epidermal growth factor receptor (Homo sapiens), P00533 [L858R,T790M,C797S], sequence (P00533 whole entry T790M/C797S/L858R, the tested form may be a part): as above
Insulin-like growth factor 1 receptor (Homo sapiens), sequence (P08069 31-736 limits assumed): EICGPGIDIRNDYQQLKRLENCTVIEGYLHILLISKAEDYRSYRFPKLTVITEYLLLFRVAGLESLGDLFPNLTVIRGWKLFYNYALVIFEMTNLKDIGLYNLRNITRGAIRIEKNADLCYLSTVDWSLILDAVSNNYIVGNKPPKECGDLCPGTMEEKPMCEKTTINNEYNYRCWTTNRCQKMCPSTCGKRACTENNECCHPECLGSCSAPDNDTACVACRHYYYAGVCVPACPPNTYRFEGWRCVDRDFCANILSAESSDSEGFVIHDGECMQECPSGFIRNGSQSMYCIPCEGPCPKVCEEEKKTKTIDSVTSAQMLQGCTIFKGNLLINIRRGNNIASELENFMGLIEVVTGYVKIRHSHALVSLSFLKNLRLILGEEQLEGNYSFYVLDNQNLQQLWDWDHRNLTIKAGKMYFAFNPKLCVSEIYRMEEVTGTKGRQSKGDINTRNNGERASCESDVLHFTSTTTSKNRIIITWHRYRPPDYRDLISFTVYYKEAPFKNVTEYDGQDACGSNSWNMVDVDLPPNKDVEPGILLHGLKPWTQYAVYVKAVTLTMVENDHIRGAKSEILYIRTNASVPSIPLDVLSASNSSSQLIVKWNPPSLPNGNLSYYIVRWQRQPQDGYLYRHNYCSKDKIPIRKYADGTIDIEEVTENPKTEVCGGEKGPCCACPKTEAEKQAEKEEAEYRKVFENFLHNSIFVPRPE
Insulin-like growth factor 1 receptor (Homo sapiens), sequence (P08069 741-1367 limits assumed): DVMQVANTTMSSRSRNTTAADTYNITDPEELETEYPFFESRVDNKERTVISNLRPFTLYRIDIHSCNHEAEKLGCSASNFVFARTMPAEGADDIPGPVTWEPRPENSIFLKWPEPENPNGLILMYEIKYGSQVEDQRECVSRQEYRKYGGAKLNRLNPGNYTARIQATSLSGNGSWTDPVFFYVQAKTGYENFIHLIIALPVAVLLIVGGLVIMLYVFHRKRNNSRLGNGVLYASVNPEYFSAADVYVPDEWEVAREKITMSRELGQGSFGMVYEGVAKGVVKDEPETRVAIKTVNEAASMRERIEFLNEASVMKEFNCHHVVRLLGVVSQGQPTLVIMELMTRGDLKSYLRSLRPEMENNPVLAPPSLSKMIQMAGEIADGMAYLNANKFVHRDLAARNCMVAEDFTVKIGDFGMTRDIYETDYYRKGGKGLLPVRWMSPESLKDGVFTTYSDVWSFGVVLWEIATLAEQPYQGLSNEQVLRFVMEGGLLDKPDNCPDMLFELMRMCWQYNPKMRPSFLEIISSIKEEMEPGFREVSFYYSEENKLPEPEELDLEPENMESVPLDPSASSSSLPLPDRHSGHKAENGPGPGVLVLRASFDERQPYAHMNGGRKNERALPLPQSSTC
Tyrosine-protein kinase Yes (Homo sapiens), sequence (P07947 2-543 limits assumed): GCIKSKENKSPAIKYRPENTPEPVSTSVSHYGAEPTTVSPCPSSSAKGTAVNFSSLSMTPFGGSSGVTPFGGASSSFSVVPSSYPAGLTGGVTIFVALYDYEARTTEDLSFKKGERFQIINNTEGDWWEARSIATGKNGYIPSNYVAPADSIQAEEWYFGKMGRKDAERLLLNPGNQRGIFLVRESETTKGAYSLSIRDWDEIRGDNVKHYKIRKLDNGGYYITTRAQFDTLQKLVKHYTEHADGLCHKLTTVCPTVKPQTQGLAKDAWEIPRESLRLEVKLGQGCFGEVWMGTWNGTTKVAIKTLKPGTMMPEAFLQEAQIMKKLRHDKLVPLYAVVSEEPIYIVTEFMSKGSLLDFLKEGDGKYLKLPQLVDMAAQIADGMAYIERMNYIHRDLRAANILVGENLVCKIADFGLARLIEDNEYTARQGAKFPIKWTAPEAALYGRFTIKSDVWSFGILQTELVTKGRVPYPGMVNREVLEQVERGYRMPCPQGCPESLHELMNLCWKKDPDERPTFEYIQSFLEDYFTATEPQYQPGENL
High affinity nerve growth factor receptor (Homo sapiens), sequence (P04629 33-796 limits assumed): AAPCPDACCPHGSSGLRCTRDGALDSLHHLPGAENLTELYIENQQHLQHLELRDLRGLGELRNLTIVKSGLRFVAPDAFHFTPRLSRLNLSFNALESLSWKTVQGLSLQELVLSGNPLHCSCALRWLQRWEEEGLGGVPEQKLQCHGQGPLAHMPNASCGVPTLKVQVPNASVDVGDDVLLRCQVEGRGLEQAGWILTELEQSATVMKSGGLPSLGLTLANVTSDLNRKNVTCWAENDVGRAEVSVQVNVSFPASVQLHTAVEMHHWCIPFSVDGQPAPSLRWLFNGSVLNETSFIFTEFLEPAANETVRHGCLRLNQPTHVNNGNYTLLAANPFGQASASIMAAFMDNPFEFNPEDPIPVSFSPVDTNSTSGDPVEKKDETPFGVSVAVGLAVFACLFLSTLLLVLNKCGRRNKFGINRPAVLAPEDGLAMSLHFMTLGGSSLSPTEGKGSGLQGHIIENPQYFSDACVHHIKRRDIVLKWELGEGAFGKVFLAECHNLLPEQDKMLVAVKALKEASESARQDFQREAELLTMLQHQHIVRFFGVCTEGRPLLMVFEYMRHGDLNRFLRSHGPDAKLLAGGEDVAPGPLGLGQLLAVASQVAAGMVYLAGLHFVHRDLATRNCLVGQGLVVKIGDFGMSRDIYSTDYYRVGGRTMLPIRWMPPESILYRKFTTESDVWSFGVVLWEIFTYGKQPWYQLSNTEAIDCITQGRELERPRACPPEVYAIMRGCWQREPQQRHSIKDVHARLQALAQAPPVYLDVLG

Compound: COc1cc2ncnc(Nc3ccc(NC(=O)C(c4ccccc4)N4Cc5ccccc5C4=O)cc3F)c2cc1OC (configuration not stated)
- inhibition [1]: Active

Compound: COc1cc2c(Nc3cc(NC(=O)C(c4ccccc4)N4Cc5ccccc5C4=O)ccc3F)ncnc2cc1OCC1CCN(C)CC1 (configuration not stated)
- IC50 [2]: 37.1 nM

Compound: COc1cc2c(Nc3ccc(NC(=O)C(c4cc(F)ccc4F)N4Cc5ccccc5C4=O)cc3F)ncnc2cc1OCC1CCN(C)CC1 (configuration not stated)
- IC50 [2]: 2.2 nM
- inhibition [3]: > 90%
- inhibition [4]: > 90%
- inhibition [5]: > 90%
- inhibition [6]: > 90%
- inhibition [7]: 50 to 75%
- inhibition [8]: 50 to 75%
- inhibition [9]: 50 to 75%
- inhibition [10]: 50 to 75%
- inhibition [11]: 50 to 75%
- inhibition [12]: 50 to 75%
- inhibition [13]: 50 to 75%
- inhibition [14]: < 25%
- inhibition [15]: < 25%
- inhibition [16]: < 25%
- inhibition [17]: < 25%
- inhibition [18]: < 25%
- inhibition [19]: < 25%
- inhibition [20]: < 25%
- inhibition [21]: < 25%
- inhibition [22]: < 25%
- inhibition [23]: < 25%
- inhibition [24]: < 25%
- inhibition [25]: < 25%
- inhibition [26]: < 25%
- inhibition [27]: < 25%
- inhibition [28]: < 25%
- inhibition [29]: < 25%
- inhibition [30]: < 25%
- inhibition [31]: < 25%
- inhibition [32]: < 25%
- inhibition [33]: < 25%
- inhibition [34]: < 25%
- inhibition [35]: < 25%
- inhibition [36]: < 25%
- inhibition [37]: < 25%
- inhibition [38]: < 25%
- IC50 [39]: 7.68 µM
- IC50 [40]: 640 nM
- IC50 [41]: 3030 nM
- IC50 [42]: 1240 nM
- inhibition [43]: Dose-dependent effect
- IC50 [44]: 331 nM
- IC50 [45]: 3.54 µM
- solubility [46]: Insoluble
- clearance [47]: 16 mL/min/kg
- bioavailability [48]: 0.55%
- inhibition [49]: Active
- inhibition [50]: 50 to 75%

Compound: COc1cc2c(Nc3ccc(NC(=O)CC4Cc5ccccc5C4)cc3F)ncnc2cc1OCC1CCN(C)CC1
- inhibition [1]: inactive

Compound: COc1cc(N2CCC(N3CCN(C)CC3)CC2)ccc1Nc1ncc(Cl)c(Nc2ccccc2P(C)(C)=O)n1 [BRIGATINIB]
- IC50 [39]: 7.31 µM

Compound: COc1cc2c(Nc3ccc(NC(=O)C(C4CCCCC4)N4Cc5ccccc5C4=O)cc3F)ncnc2cc1OCC1CCN(C)CC1 (configuration not stated)
- IC50 [2]: 180 nM

Compound: COc1cc2ncnc(Nc3ccc(NC(=O)C(c4ccccc4)N4Cc5ccccc5C4=O)cc3F)c2cc1OCN1CCOCC1 (configuration not stated)
- inhibition [1]: Active

Compound: COc1cc2nc(N)nc(Nc3ccc(NC(=O)C(c4ccccc4)N4Cc5ccccc5C4=O)cc3F)c2cc1OC (configuration not stated)
- inhibition [1]: inactive
- inhibition [51]: inactive

Compound: C=CC(=O)Nc1cc(Nc2nccc(-c3cn(C)c4ccccc34)n2)c(OC)cc1N(C)CCN(C)C [OSIMERTINIB]
- IC50 [39]: 5.11 µM
- IC50 [40]: 3930 nM

Compound: COc1cc2ncnc(Nc3ccc(NC(=O)C(c4ccccc4)N4Cc5ccccc5C4=O)cc3F)c2cc1OCCCN1CCOCC1 (configuration not stated)
- inhibition [1]: Active
